The target of data set [1] is Adenosine receptor A1 (Homo sapiens) (UniProt P30542). Kind of data set: A1/HU Eurofins-Panlabs selectivity data (BI). As to conditions: Compound concentration 10.0 uM; call rule not given here.
Data set [2] deals with Adenosine receptor A2a (Homo sapiens) (UniProt P29274). Kind of data set: A2A/HU Eurofins-Panlabs selectivity data (BI). As to conditions: Compound concentration 10.0 uM.
Data set [3] concerns the target T1, Alpha-1A adrenergic receptor (Homo sapiens) (UniProt P35348).
T1 sequence (whole entry): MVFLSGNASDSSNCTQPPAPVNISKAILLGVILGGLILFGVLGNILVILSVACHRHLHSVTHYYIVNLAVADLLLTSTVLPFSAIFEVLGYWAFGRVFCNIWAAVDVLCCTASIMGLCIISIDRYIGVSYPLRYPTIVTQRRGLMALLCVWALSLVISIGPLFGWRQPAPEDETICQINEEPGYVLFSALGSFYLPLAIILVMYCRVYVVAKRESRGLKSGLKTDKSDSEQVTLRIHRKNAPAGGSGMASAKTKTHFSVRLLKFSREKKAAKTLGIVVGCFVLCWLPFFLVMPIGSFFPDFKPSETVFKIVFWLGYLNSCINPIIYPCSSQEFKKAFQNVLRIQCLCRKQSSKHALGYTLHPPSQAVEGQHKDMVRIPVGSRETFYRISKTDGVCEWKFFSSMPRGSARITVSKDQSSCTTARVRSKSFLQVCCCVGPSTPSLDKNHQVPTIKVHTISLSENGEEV
The data set is described as follows: ALPHA1A/R Eurofins-Panlabs selectivity data (BI). As to conditions: Rattus norvegicus; Compound concentration 10.0 uM.

Data set [4] concerns the target T2, Alpha-1B adrenergic receptor (Homo sapiens) (UniProt P35368).
T2 sequence (whole entry): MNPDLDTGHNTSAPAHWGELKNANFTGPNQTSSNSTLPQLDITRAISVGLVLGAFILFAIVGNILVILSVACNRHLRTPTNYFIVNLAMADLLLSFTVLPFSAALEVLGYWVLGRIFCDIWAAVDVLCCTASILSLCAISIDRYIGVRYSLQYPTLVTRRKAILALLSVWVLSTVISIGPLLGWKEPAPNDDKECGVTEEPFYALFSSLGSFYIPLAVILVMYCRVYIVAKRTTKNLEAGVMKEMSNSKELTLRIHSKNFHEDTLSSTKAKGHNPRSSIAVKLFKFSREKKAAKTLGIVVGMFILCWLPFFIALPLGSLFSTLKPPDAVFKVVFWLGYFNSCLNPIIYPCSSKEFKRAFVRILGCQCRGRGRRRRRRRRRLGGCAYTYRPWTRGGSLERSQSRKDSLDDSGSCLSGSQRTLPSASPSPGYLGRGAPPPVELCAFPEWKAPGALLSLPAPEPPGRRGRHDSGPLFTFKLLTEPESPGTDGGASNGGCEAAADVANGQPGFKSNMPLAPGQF
The data set is described as follows: ALPHA1B/R Eurofins-Panlabs selectivity data (BI). As to conditions: Rattus norvegicus; Compound concentration 10.0 uM.

Data set [5] has as its target Beta-1 adrenergic receptor (Homo sapiens) (UniProt P08588). The data set is described as follows: BETA1/HU Eurofins-Panlabs selectivity data (BI). As to conditions: Compound concentration 10.0 uM.
Data set [6] concerns the target Beta-2 adrenergic receptor (Homo sapiens) (UniProt P07550). Kind of data set: BETA2/HU Eurofins-Panlabs selectivity data (BI). As to conditions: Compound concentration 10.0 uM.
The target in data set [7] is Prostaglandin E2 receptor EP4 subtype (Homo sapiens) (UniProt P35408). Kind of data set: EP4/H Eurofins-Panlabs selectivity data (BI). As to conditions: Compound concentration 10.0 uM.
For data set [8], the target named is Gamma-aminobutyric acid receptor subunit alpha-1 (Rattus norvegicus) (UniProt P62813). The data set is described as follows: GABAACENTR Eurofins-Panlabs selectivity data (BI). As to conditions: Compound concentration 10.0 uM.
Data set [9] deals with Histamine H1 receptor (Homo sapiens) (UniProt P35367). Kind of data set: H1/H Eurofins-Panlabs selectivity data (BI). As to conditions: Compound concentration 10.0 uM.
The target in data set [10] is hERG (KCNH2) potassium channel (Homo sapiens, UniProt Q12809). Kind of data set: K+/HERG Eurofins-Panlabs selectivity data (BI). As to conditions: compound concentration 10 uM, read-out: % Ctrl.
The target of data set [11] is ATP-sensitive inward rectifier potassium channel 1 isoform X1 (Mesocricetus auratus) (UniProt A0A1U8CU73). Kind of data set: K+/KATP/HA Eurofins-Panlabs selectivity data (BI). As to conditions: Compound concentration 10.0 uM.
For data set [12], the target named is Muscarinic acetylcholine receptor M3 (Homo sapiens) (UniProt P20309). Kind of data set: M3/HU Eurofins-Panlabs selectivity data (BI). As to conditions: Compound concentration 10.0 uM.
Data set [13] addresses Mu-type opioid receptor (Homo sapiens) (UniProt P35372). Kind of data set: MU/HU Eurofins-Panlabs selectivity data (BI). As to conditions: Compound concentration 10.0 uM.
The target of data set [14] is Acetylcholine receptor subunit alpha (Homo sapiens) (UniProt P02708). The data set is described as follows: NACH/H Eurofins-Panlabs selectivity data (BI). As to conditions: Compound concentration 10.0 uM.
The target in data set [15] is Nicotinic acetylcholine receptor alpha-1/beta-1 (Homo sapiens) (UniProt P02708+P11230). Kind of data set: NACH_BS_N/H Eurofins-Panlabs selectivity data (BI). As to conditions: Compound concentration 10.0 uM. Format: protein-complex assay.
Data set [16] deals with Protein kinase C alpha type (Mus musculus) (UniProt P20444). The data set is described as follows: PHORBOLE/M Eurofins-Panlabs selectivity data (BI). As to conditions: Compound concentration 10.0 uM.
In data set [17] the target is 3',5'-cyclic-AMP phosphodiesterase 4A (Rattus norvegicus) (UniProt P54748). Kind of data set: ROLIPRAM/R Eurofins-Panlabs selectivity data (BI). As to conditions: Compound concentration 10.0 uM.
The target of data set [18] is Sigma non-opioid intracellular receptor 1 (Homo sapiens) (UniProt Q99720). Kind of data set: SIGMA1/HU Eurofins-Panlabs selectivity data (BI). As to conditions: Compound concentration 10.0 uM.
The target in data set [19] is Sigma intracellular receptor 2 (Homo sapiens, UniProt Q5BJF2). The data set is described as follows: SIGMA2/R Eurofins-Panlabs selectivity data (BI). As to conditions: Rattus norvegicus; Compound concentration 10.0 uM.
In data set [20] the target is Dual specificity mitogen-activated protein kinase kinase 5 (Homo sapiens) (UniProt Q13163). As to conditions: Compound concentration 1000.0 nM.
The target in data set [21] is 5-hydroxytryptamine receptor 1B (Homo sapiens) (UniProt P28222). As to conditions: Compound concentration 10.0 uM.
For data set [22], the target named is Muscarinic acetylcholine receptor M1 (Homo sapiens) (UniProt P11229). As to conditions: Compound concentration 10.0 uM.
Data set [23] concerns the target Serine/threonine-protein kinase BRSK1 (Homo sapiens) (UniProt Q8TDC3). As to conditions: Compound concentration 1000.0 nM.
Data set [24] addresses Tyrosine-protein kinase Fgr (Homo sapiens) (UniProt P09769). As to conditions: Compound concentration 1000.0 nM.
Data set [25] addresses Glycogen synthase kinase-3 beta (Homo sapiens) (UniProt P49841). As to conditions: Compound concentration 1000.0 nM.
Data set [26] concerns the target Dual specificity mitogen-activated protein kinase kinase 2 (Homo sapiens) (UniProt P36507). As to conditions: Compound concentration 1000.0 nM.
Data set [27] concerns the target Serine/threonine-protein kinase MRCK beta (Homo sapiens) (UniProt Q9Y5S2). As to conditions: Compound concentration 1000.0 nM.
For data set [28], the target named is Uncharacterized serine/threonine-protein kinase SBK3 (Homo sapiens) (UniProt P0C264). As to conditions: Compound concentration 1000.0 nM.
The target of data set [29] is NUAK family SNF1-like kinase 2 (Homo sapiens) (UniProt Q9H093). As to conditions: Compound concentration 1000.0 nM.
Data set [30] deals with Alpha-2A adrenergic receptor (Homo sapiens) (UniProt P08913). As to conditions: Compound concentration 10.0 uM.

Broadly, the inhibition is the percentage by which the read-out fell short of the control.

Sigma non-opioid intracellular receptor 1 (Homo sapiens), sequence (Q99720 whole entry): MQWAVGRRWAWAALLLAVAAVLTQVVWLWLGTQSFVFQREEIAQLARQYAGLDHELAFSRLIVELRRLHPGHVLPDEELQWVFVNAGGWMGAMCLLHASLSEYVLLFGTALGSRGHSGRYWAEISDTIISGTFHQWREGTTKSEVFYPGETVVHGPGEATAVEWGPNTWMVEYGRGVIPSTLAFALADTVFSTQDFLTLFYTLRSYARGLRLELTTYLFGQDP
Muscarinic acetylcholine receptor M1 (Homo sapiens), sequence (P11229 whole entry): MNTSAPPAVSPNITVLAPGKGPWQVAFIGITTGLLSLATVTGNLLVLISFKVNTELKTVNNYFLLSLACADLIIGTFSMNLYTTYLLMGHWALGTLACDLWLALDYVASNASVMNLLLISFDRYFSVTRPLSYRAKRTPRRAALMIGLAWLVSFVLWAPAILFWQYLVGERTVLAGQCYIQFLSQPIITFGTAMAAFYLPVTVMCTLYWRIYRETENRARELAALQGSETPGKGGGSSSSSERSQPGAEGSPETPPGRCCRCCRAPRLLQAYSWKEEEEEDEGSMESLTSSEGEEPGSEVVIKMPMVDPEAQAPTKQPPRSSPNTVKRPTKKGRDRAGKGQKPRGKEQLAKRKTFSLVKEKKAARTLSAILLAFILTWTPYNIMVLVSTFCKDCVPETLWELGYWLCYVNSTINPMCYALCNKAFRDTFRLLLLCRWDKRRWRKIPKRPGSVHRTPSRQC
Alpha-2A adrenergic receptor (Homo sapiens), sequence (P08913 whole entry): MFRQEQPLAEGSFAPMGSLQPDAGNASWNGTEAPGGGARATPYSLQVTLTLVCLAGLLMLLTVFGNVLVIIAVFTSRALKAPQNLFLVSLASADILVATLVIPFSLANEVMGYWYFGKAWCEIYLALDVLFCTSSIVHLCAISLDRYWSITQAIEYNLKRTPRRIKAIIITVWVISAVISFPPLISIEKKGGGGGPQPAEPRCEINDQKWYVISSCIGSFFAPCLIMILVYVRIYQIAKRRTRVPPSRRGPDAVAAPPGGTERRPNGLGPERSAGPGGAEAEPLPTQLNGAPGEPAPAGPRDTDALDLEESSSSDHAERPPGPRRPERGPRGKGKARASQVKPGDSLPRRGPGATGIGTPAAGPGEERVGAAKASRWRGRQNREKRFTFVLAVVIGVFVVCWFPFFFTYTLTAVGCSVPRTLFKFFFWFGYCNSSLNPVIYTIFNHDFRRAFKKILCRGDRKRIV
Serine/threonine-protein kinase BRSK1 (Homo sapiens), sequence (Q8TDC3 whole entry): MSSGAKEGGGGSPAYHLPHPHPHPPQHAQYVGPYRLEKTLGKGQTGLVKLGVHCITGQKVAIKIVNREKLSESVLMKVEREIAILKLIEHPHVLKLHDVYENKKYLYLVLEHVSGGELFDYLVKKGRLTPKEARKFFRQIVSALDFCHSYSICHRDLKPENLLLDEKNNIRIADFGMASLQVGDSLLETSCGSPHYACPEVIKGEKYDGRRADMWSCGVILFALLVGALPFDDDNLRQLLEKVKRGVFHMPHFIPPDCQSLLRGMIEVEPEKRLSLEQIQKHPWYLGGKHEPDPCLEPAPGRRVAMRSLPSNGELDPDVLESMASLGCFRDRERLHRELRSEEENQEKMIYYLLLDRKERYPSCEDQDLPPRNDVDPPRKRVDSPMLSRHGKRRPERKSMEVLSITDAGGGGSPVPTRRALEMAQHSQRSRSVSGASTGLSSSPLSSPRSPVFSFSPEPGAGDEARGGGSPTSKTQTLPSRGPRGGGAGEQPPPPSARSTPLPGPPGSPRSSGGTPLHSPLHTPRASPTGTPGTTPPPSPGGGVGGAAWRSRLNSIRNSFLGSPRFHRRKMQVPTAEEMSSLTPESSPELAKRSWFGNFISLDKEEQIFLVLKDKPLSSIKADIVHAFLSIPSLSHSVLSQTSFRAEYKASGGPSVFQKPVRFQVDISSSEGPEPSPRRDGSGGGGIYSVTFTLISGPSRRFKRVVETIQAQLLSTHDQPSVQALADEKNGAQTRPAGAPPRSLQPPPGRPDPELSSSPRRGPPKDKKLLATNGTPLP
Prostaglandin E2 receptor EP4 subtype (Homo sapiens), sequence (P35408 whole entry): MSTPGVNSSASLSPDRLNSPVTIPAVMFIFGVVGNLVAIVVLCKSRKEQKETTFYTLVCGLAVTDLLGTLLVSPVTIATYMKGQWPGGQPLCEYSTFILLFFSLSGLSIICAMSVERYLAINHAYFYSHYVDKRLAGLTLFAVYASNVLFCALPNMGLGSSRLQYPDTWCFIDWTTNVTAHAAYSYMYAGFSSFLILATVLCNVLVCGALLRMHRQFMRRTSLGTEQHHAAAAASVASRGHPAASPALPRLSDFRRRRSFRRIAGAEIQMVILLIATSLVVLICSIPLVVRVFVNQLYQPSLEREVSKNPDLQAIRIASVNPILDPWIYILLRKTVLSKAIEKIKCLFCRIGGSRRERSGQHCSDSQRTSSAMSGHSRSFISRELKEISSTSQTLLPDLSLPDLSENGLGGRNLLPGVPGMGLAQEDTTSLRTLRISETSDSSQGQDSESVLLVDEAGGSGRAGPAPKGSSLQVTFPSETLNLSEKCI
ATP-sensitive inward rectifier potassium channel 1 isoform X1 (Mesocricetus auratus), sequence (A0A1U8CU73 as listed by the source): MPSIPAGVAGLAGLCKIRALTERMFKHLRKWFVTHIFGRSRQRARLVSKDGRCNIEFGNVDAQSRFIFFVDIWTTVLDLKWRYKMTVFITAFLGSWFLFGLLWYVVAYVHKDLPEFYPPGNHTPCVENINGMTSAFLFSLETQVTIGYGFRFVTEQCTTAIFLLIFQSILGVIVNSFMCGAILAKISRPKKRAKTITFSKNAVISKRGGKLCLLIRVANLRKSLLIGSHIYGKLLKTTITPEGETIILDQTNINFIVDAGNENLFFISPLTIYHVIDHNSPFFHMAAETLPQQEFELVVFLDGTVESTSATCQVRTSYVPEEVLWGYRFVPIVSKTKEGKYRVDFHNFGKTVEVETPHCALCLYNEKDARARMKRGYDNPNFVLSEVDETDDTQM
Mu-type opioid receptor (Homo sapiens), sequence (P35372 whole entry): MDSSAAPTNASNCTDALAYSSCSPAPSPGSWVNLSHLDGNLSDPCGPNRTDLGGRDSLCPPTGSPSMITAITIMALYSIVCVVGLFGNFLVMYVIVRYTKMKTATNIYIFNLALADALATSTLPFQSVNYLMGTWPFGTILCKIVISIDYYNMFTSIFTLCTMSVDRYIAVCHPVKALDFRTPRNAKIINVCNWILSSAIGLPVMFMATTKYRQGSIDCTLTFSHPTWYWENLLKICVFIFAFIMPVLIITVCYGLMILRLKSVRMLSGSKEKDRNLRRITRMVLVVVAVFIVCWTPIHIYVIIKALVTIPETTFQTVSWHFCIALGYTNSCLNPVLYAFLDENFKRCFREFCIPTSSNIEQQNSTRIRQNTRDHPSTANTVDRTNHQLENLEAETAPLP
Histamine H1 receptor (Homo sapiens), sequence (P35367 whole entry): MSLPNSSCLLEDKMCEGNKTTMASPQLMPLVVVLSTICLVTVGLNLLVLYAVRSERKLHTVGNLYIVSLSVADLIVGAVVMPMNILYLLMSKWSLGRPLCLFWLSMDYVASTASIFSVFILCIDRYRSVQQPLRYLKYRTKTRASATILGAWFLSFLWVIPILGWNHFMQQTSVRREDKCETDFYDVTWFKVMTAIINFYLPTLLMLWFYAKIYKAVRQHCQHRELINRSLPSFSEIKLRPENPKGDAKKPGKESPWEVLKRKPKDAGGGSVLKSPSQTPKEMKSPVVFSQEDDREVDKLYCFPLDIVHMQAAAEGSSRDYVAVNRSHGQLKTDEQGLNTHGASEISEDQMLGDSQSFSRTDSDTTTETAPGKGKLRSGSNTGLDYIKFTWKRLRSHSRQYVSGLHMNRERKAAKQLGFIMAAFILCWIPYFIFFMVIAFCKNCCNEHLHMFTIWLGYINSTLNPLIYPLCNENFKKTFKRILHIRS
Uncharacterized serine/threonine-protein kinase SBK3 (Homo sapiens), sequence (P0C264 whole entry): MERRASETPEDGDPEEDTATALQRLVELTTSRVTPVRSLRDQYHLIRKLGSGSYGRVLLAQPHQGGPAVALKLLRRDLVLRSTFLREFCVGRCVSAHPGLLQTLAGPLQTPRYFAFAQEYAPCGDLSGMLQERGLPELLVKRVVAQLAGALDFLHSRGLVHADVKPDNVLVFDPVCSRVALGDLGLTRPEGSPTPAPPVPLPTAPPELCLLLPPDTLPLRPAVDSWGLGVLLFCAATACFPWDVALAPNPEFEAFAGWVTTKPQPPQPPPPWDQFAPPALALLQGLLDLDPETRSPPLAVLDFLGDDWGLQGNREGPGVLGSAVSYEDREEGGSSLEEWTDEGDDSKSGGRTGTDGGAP
Tyrosine-protein kinase Fgr (Homo sapiens), sequence (P09769 2-529 limits assumed): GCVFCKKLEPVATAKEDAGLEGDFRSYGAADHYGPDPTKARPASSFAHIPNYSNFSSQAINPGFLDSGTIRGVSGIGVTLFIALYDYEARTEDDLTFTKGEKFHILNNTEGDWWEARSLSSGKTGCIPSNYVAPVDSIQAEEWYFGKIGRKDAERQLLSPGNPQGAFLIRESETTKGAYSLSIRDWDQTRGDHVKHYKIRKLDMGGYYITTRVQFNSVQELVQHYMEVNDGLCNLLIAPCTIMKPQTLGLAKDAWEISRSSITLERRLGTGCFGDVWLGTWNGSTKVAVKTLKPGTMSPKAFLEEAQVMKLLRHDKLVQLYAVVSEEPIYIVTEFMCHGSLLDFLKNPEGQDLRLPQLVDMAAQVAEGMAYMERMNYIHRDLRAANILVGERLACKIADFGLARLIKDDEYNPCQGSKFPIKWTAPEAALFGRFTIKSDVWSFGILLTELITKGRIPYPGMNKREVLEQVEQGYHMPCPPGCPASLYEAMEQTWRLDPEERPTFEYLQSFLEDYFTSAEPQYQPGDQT
5-hydroxytryptamine receptor 1B (Homo sapiens), sequence (P28222 whole entry): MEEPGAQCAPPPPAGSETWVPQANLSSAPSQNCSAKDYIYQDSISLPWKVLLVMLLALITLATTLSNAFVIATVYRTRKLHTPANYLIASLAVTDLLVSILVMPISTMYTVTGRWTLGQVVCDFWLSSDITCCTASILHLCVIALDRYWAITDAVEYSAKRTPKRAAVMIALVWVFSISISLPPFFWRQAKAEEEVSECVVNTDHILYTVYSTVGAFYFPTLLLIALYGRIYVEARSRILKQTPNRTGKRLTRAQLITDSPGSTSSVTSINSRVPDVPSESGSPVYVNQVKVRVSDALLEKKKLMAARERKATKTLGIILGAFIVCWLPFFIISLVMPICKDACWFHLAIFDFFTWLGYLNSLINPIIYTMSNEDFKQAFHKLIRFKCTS

For the molecule `CCC(=O)N[C@H]1CC[C@@H](C(=O)N(C)c2ccc(-c3nc4ccccc4o3)cc2)C1` [BI 99179], the residual activity in data set [1] is 107%; in data set [2], 90%; in [3], 83%; in data set [4] it was 96%; in [5] it was 96%; in data set [6] it was 100%. Moreover, the residual activity is 91% in data set [7]; 92% in [8]; 87% in data set [9]; 88% in data set [11]; 106% in data set [12]; 100% in [13]. The residual activity is 113% in data set [14]; 91% in data set [15]; 94% in data set [16]; 83% in [17]; 102% in data set [18]; 87% in [19]. For the same molecule, the residual activity in data set [20] was 16%. In addition, the activity at 10 µM in [10] was 105% (not active). Further, the inhibition in data set [21] was 25.7%; in [22], 3.53%.

`CCC(=O)N[C@@H]1CC[C@H](C(=O)N(C)c2ccc(-c3nc4ccccc4o3)cc2)C1` [BI 99990]: the residual activity in [23] was 100%; in data set [24] it was 100%; in data set [25], 96%; in [26] it was 100%; in data set [27], 100%; in data set [28], 88%. The residual activity in [29] was 100%. Besides, the inhibition in data set [30] was 11.2%.

The record behind these values is ChEMBL document CHEMBL4507280 (2021).
